According to patent EP0665223A1, “Antitumor agent, novel 3(2H)-pyridazinone derivatives and their preparation” (TAKEDA CHEMICAL INDUSTRIES, LTD., priority 1994, dated 1995):

How the values were obtained:
[1] = test system: pancreatic cancer cell AsPC-1; assay: Suppressing proliferation of pancreatic cancer cell AsPC-1 in vitro (MTT, number of living cells); type: cell-based; settings: Homo sapiens, ASPC1, 72 h, AsPC-1, RPMI 1640 medium, incubated 3 days with test compound
Protocol: (§1) A cell suspension of pancreatic cancer cell AsPC-1 (20000/ml) in RPMI 1640 medium (Flow Laboratories) supplemented with 10% of inactivated fetal calf serum, 1 mM of sodium pyruvate and 25 mM of HEPES [2-{4-(2-hydroxyethyl)-1-piperazinyl}ethanesulfonic acid] was added to 96-well micro-culture plates (50ul/well). The culture plates were incubated at 37°C in a 5% CO₂ incubator. On the following day, the solution of each test compound dissolved in dimethylformamide and diluted (3-fold steps) was added (50 ul/well), which was incubated for further 3 days. The culture broth containing the test compounds was eliminated, and the cells were washed, to which was added a solution of MTT pigment, and the number of living cells was calculated [Tada et al. J. Immunol. Methods, 93 p.157 (1986)]. The number of cells in the control group containing no test compound was assumed to be 100%, and the respective ratios of cell numbers in groups containing the respective test compounds were calculated to thereby determine the concentrations (IC₅₀ value) of the respective test compounds necessary to suppress the number of living cells to 50% of that of the control group.

[2] = test system: pancreatic cancer cell strain PC-3; assay: Suppressing proliferation of PC-3 cells in vitro (MTT, number of living cells); type: cell-based; settings: 96 h, PC-3, F-12K medium, incubated 4 days with test compound
Protocol: as §1
For the test of pancreatic cancer cell strain PC-3, the same method in the case of AcPC-1 was employed excepting the use of F-12K medium containing 10% inactivated fetal calf serum (Flow Laboratories) and change of the incubation period after adding the test compounds to 4 days, to thereby determine the IC₅₀ value (nm).

Structure (SMILES)	IC50 [1]	IC50 [2]
CC(C)(C)n1ncc(OCc2ccc(-c3csnn3)cc2)c(Cl)c1=O [Compound 116, 2-t-butyl-4-chloro-5-[4-(1,2,3-thiadiazol-4-yl)benzyloxy]-3(2H)-pyridazinone]	370 nM	14 nM
CC(C)(C)n1ncc(SC(CO)c2ccccc2)c(Cl)c1=O (stereo not shown) [Compound 48, 2-t-butyl-4-chloro-5-(2-hydroxy-1-phenyl) ethylthio-3(2H)-pyridazinone]	67 nM	45 nM
CC(C)(C)n1ncc(OCc2ccc3ccccc3c2)c(Cl)c1=O [Compound 20, 2-t-butyl-4-chloro-5-(2-naphthyl)methyloxy-3(2H)pyridazinone]	440 nM	5 nM
CC(C)(C)OC(=O)Nc1cc(-c2ccc(CSc3cnn(C(C)(C)C)c(=O)c3Cl)cc2)ccn1 [Compound 90, 2-t-butyl-4-chloro-5-[4-[4-(2-t-butoxycarbonylamino)pyridyl]benzylthio]-3(2H)-pyridazinone]	270 nM	64 nM
CC(C)(C)n1ncc(SC(CO)c2ccc(-c3ccccc3)cc2)c(Cl)c1=O (stereo not shown) [Compound 85, 2-t-butyl-4-chloro-5-[2-hydroxy-1-(p-biphenyl)]ethylthio-3(2H)-pyridazinone]	12 nM	< 1.52 nM
Cc1c(OCc2ccc(-c3ccccn3)cc2)cnn(C(C)(C)C)c1=O [Compound 104, 2-t-butyl-4-methyl-5-[4-(2-pyridyl)]benzyloxy-3(2H)-pyridazinone]	85 nM	< 1.52 nM
COc1cc(OC)nc(-c2ccc(COc3cnn(C(C)(C)C)c(=O)c3Cl)cc2)n1 [Compound 99, 2-t-butyl-4-chloro-5-[4-[2-(4,6-dimethoxy)pyrimidyl]]benzyloxy-3(2H)-pyridazinone]	230 nM	52 nM
CC(C)(C)n1ncc(OCc2ccc(-c3ccccc3)cc2)c(Cl)c1=O [Compound 18, 2-t-butyl-4-chloro-5-(4-phenyl)benzyloxy-3(2H)pyridazinone]	< 1.52 nM	< 1.52 nM
Cc1c(OCc2ccc(C(C)(C)C)cc2)cnn(C(C)(C)C)c1=O [Compound 31, 2-t-butyl-5-(4-t-butyl)benzyloxy-4-methyl-3(2H)pyridazinone]	84 nM	25 nM
CC(C)(C)n1ncc(SCc2ccc(OCc3ccccc3)cc2)c(Cl)c1=O [Compound 74, 5-(4-benzyloxybenzylthio)-2-t-butyl-4-chloro-3(2H)-pyridazinone]	29 nM	< 1.52 nM
CC(C)(C)n1ncc(SCc2ccc(-c3ccccc3C#N)cc2)c(Cl)c1=O [Compound 13, 2-t-butyl-4-chloro-5-{4-(2-cyanophenyl)} benzylthio-3(2H)pyridazinone]	< 1.52 nM	< 1.52 nM
CC(C)(C)n1ncc(SCc2ccc(-c3ccnc(N)c3)cc2)c(Cl)c1=O [Compound 92, 5-[4-[4-(2-amino)pyridyl]benzylthio]-2-t-butyl-4-chloro-3(2H)-pyridazinone]	28 nM	< 1.52 nM
CC(C)(C)n1ncc(OCc2ccc(OCc3ccc(F)cc3)nc2)c(Cl)c1=O [Compound 49, 2-t-butyl-4-chloro-5-[6-(4-fluorobenzyloxy)-3-pyridyl]methoxy-3(2H)-pyridazinone]	120 nM	< 1.52 nM
CC(C)(C)n1ncc(SCc2ccc(-c3csc(N)n3)cc2)c(Cl)c1=O [Compound 102]	33 nM	2 nM
CC(C)(C)n1ncc(SCc2ccc(-c3ncccn3)cc2)c(Cl)c1=O [Compound 96, 2-t-butyl-4-chloro-5-[4-(2-pyrimidyl)]benzylthio-3(2H)-pyridazine]	16 nM	< 1.52 nM
CC(C)(C)n1ncc(SCc2ccc(-c3csnn3)cc2)c(Cl)c1=O [Compound 115, 2-t-butyl-4-chloro-5-[4-(1,2,3-thiadiazol-4-yl)benzylthio]-3(2H)-pyridazinone]	49 nM	< 1.52 nM
Cc1c(SCc2ccc(C(C)(C)C)cc2)cnn(C(C)(C)C)c1=O [Compound 27, 2-t-butyl-5-(4-t-butyl)benzylthio-4-methyl-3(2H)pyridazinone]	9 nM	< 1.52 nM
CC(C)(C)n1ncc(OCC(O)c2ccc(-c3ccccc3)cc2)c(Cl)c1=O (stereo not shown) [Compound 82, 2-t-butyl-4-chloro-5-[2-hydroxy-2-(4-biphenyl)]ethoxy-3(2H)-pyridazinone]	480 nM	27 nM
CC(C)(C)n1ncc(SCc2ccc(C(F)(F)F)cc2)c(Cl)c1=O [Compound 17, 2-t-butyl-4-chloro-5-(4-trifluoromethyl) benzylthio-3(2H)pyridazinone]	59 nM	56 nM
CC(C)(C)n1ncc(OCc2ccc(-c3ccccn3)cc2)c(Cl)c1=O [Compound 42, 2-t-butyl-4-chloro-5-{4-(2-pyridyl)benzyloxy}-3(2H)-pyridazinone]	5 nM	2 nM
CC(C)(C)n1ncc(SCc2ccc3ccccc3n2)c(Cl)c1=O [Compound 12, 2-t-butyl-4-chloro-5-(2-quinolyl)methylthio-3(2H)pyridazinone]	74 nM	42 nM
CC(C)(C)n1ncc(OCc2ccc(-c3ncccn3)cc2)c(Cl)c1=O [Compound 97, 2-t-butyl-4-chloro-5-[4-(2-pyrimidyl)]benzyloxy-3(2H)-pyridazine]	280 nM	< 1.52 nM
CC(C)(C)n1ncc(OC(CO)c2ccc(-c3ccccc3)cc2)c(Cl)c1=O (stereo not shown) [Compound 83, 2-t-butyl-4-chloro-5-[2-hydroxy-1-(43-biphenyl)]ethoxy-3(2H)-pyridazinone]	73 nM	2 nM
CC(C)(C)n1ncc(SCc2ccc(OCc3ccc(F)cc3)nc2)c(Cl)c1=O [Compound 50, 2-t-butyl-4-chloro-5-[6-(4-fluorobenzyloxy)-3-pyridyl]methylthio-3(2H)-pyridazinone]	11 nM	< 1.52 nM

Now from value to compound:

IC50 [1]	IC50 [2]	Structure (SMILES)
< 1.52 nM	4 nM	CC(C)(C)n1ncc(SCc2ccc(-c3ccccn3)cc2)c(Cl)c1=O [Compound 39, 2-t-butyl-4-chloro-5-{4-(2-pyridyl)benzylthio}-3(2H)-pyridazinone]
290 nM	53 nM	CC(C)(C)n1ncc(SCC=Cc2ccccc2)c(Cl)c1=O [Compound 6, 2-t-butyl-4-chloro-5-{(3-phenyl)-2-propenylthio}-3(2H)pyridazinone]
100 nM	2 nM	CC(C)(C)n1ncc(SCc2ccc(-c3ncns3)cc2)c(Cl)c1=O [Compound 117, 2-t-butyl-4-chloro-5-[4-(1,2,4-thiadiazol-5-yl)benzylthio]-3(2H)-pyridazinone]
15 nM	< 1.52 nM	CC(C)(C)n1ncc(SCc2ccc3ccccc3c2)c(Cl)c1=O [Compound 4, 2-t-butyl-4-chloro-5-(2-naphthyl)methylthio-3(2H)pyridazinone]
< 1.52 nM	< 1.52 nM	CC(C)(C)n1ncc(SCc2ccc(C(=O)c3ccc(Cl)cc3)cc2)c(Cl)c1=O [Compound 72, 2-t-butyl-4-chloro-5-[4-(4-chlorobenzoyl)benzylthio]-3(2H)-pyridazinone]
250 nM	210 nM	CC(C)(C)n1ncc(OCc2ccc(-c3csc(N)n3)cc2)c(Cl)c1=O [Compound 103]
550 nM	3 nM	CC(C)(C)n1ncc(SCc2ccc(-c3cc[nH]n3)cc2)c(Cl)c1=O [Compound 111, 2-t-butyl-4-chloro-5-[4-(1H-pyrazol-3-yl)benzylthio]-3(2H)-pyridazinone]
560 nM	92 nM	CC(C)(C)OC(=O)Nc1cc(-c2ccc(COc3cnn(C(C)(C)C)c(=O)c3Cl)cc2)ccn1 [Compound 91]
370 nM	< 1.52 nM	CC(C)(C)n1ncc(SCc2ccc(-c3cnco3)cc2)c(Cl)c1=O [Compound 119, 2-t-butyl-4-chloro-5-[4-(1,3-oxazol-5-yl)benzylthio]-3(2H)-pyridazinone]
770 nM	110 nM	CC(C)(C)n1ncc(OCc2ccc(-c3ccnc(N)c3)cc2)c(Cl)c1=O [Compound 93, 5-[4-[4-(2-amino)pyridyl]benzyloxy]-2-t-butyl-4-chloro-3(2H)-pyridazinone]
8 nM	< 1.52 nM	CC(C)(C)n1ncc(OCc2ccc(C(=O)c3ccc(Cl)cc3)cc2)c(Cl)c1=O [Compound 73, 2-t-butyl-4-chloro-5-[4-(4-chlorobenzoyl)benzyloxy]-3(2H)-pyridazinone]
120 nM	< 1.52 nM	CC(C)(C)n1ncc(SCc2ccc(-c3ccno3)cc2)c(Cl)c1=O [Compound 113, 2-t-butyl-4-chloro-5-[4-(1,2-oxazol-5-yl)benzylthio]-3(2H)-pyridazinone]
54 nM	6 nM	COc1cc(OC)nc(-c2ccc(CSc3cnn(C(C)(C)C)c(=O)c3Cl)cc2)n1 [Compound 98, 2-t-butyl-4-chloro-5-[4-[2-(4,6-dimethoxy)pyrimidyl]]benzylthio-3(2H)-pyridazinone]
< 1.52 nM	2 nM	CC(C)(C)n1ncc(SCc2ccc(-c3ccccc3)cc2)c(Cl)c1=O [Compound 3, 2-t-butyl-4-chloro-5-(4-phenyl)benzylthio-3(2H)pyridazinone]
